Patent publication US12653859B2, “Peptides and medical uses thereof” (Anbition S.R.L., priority 2018, dated 2026)

Experiments:
[1] = Serum protease stability in 10% fetal calf serum (RP-HPLC); type: in vitro ADME; details: 10% FCS
Experimental: The stability of the peptide iVR1-Cys in 10% serum (fetal calf serum, FCS) in a 50 mM phosphate buffer solution, pH 7.3, at 168 h was determined as described by Ponticelli et al., relying on a method based on RP-HPLC chromatography, described therein [Ponticelli et al., J Biol Chem. 2008 Dec. 5; 283 (49): 34250-9].
The reference curve was constructed by dissolving the compound in DMSO at increasing concentrations of between 0.1 μmol/L and 1000 μmol/L in order to have complete dissolution. The concentration of the molecule left in contact with 10% FCS at the initial concentration of 10 μmol/L was then determined by drawing 3 aliquots at time t=0, then every hour in the first 12 hours and then at 24, 72, 120, and 168 h. The aliquots were diluted 1:1 with acetic acid 0.1 M in order to detach any peptide bound to the albumin, centrifuged to remove any precipitated materials and analyzed by RP-HPLC under the conditions reported in Ponticelli et al. The amount of residual peptide detected in the aliquots, expressed as a percentage relative to the initial amount, was plotted as a function of time. The results are shown in Table VII as the mean of the three determinations±the standard deviation (SD).

[2] = biological target: T1, VEGF-A/VEGFR-1 interaction (Homo sapiens, UniProt P17948); test: ELISA competition assay of VEGF-A binding to VEGFR-1; details: tetrameric peptides of formula (II) with Y2 different from D-cysteine; read-out: IC50 of inhibition of the interaction VEGF-A/VEGFR-1
T1 construct: the form consisting of the seven extracellular domains of the receptor fused to the Fc domain of human IgG; purchased R&D Systems 321-FL (receptor); 293-VE (VEGF-A)
Experimental: The binding reaction was conducted for one hour at 37° C., followed by one hour at room temperature. At the end of the binding and/or competition step, anti-human-PIGF biotinylated polyclonal antibodies (R&D Systems, cat No. BAF264) or anti-human-VEGF-A (R&D Systems, cat No. BAF293) were added to the wells at the concentration of 300 ng/ml in PBET. After one hour of incubation at 37° C. followed by one hour at room temperature, an HRP-conjugated avidin-streptavidin system (Vectastain elite ABC kit) and a substrate for HRP (o-phenylenediamine-Sigma, cat No. P1526) were added to the wells. Quantization was performed by determining the absorbance at 490 nm. Any inhibitory activity of the peptides was expressed in terms of % of residual binding, comparing the data obtained for the binding of PIGF or VEGF-A to the receptors in the presence of the tetrameric peptides with those in the absence of the same. iVR1 represented the positive control of the inhibition of the PIGF/VEGFR-1 or VEGF-A/VEGFR-1 interaction.

T1 sequence (P17948 27-758 limits assumed): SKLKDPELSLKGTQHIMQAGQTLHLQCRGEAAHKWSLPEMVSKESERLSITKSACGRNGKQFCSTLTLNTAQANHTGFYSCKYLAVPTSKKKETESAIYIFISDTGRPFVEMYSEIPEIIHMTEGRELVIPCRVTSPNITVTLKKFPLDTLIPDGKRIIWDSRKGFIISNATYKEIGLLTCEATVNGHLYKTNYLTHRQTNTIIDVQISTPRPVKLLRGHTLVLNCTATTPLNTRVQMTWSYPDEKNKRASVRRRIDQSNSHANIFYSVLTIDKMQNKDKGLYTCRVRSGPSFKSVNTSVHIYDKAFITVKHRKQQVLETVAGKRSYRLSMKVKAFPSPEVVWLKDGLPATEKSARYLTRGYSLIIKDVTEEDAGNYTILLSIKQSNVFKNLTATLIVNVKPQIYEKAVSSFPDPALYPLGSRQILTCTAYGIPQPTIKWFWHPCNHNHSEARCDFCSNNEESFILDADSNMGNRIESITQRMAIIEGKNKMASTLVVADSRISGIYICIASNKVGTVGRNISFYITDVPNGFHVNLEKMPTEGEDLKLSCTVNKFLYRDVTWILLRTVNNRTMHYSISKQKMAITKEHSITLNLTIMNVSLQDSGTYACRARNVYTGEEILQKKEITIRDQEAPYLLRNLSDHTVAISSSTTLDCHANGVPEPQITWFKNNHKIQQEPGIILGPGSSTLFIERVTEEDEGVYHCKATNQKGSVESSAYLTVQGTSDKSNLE

In the case of NC(=O)[C@@H](CS)NC(=O)C(CCCCNC(=O)C(CCCCNC(=O)[C@H](CC1CCCCC1)NC(=O)C(CSCc1ccccc1)NC(=O)[C@H](N)CCC(=O)O)NC(=O)[C@H](CC1CCCCC1)NC(=O)C(CSCc1ccccc1)NC(=O)[C@H](N)CCC(=O)O)NC(=O)C(CCCCNC(=O)[C@H](CC1CCCCC1)NC(=O)C(CSCc1ccccc1)NC(=O)[C@H](N)CCC(=O)O)NC(=O)[C@H](CC1CCCCC1)NC(=O)C(CSCc1ccccc1)NC(=O)[C@H](N)CCC(=O)O (some centres unmarked) [iVR1-Cys], the “% residual peptide ± SD” value ([1]; 0 h, 50 mM phosphate buffer pH 7.3, initial 10 μmol/L) is reported as 101 ± 4%, the remaining at 1 h, 10 μmol/L ([1]; cattle (fetal calf), 10% fetal calf serum in phosphate buffer, 1 h, pH 7.3, read-out: % residual peptide ± SD) is reported as 100 ± 11% and the remaining at 2 h, 10 μmol/L ([1]; cattle (fetal calf), 10% fetal calf serum in phosphate buffer, 2 h, pH 7.3, read-out: % residual peptide ± SD) is reported as 99 ± 7%. It also gave a remaining at 3 h, 10 μmol/L ([1]; cattle (fetal calf), 10% fetal calf serum in phosphate buffer, 3 h, pH 7.3, read-out: % residual peptide ± SD) of 98 ± 5%, a remaining at 4 h, 10 μmol/L ([1]; cattle (fetal calf), 10% fetal calf serum in phosphate buffer, 4 h, pH 7.3, read-out: % residual peptide ± SD) of 97 ± 4% and a remaining at 5 h, 10 μmol/L ([1]; cattle (fetal calf), 10% fetal calf serum in phosphate buffer, 5 h, pH 7.3, read-out: % residual peptide ± SD) of 96 ± 5%. The remaining at 6 h, 10 μmol/L ([1]; cattle (fetal calf), 10% fetal calf serum in phosphate buffer, 6 h, pH 7.3, read-out: % residual peptide ± SD) was 99 ± 6%, the remaining at 7 h, 10 μmol/L ([1]; cattle (fetal calf), 10% fetal calf serum in phosphate buffer, 7 h, pH 7.3, read-out: % residual peptide ± SD) was 95 ± 8% and the remaining at 8 h, 10 μmol/L ([1]; cattle (fetal calf), 10% fetal calf serum in phosphate buffer, 8 h, pH 7.3, read-out: % residual peptide ± SD) was 96 ± 5%. It also gave a remaining at 9 h, 10 μmol/L ([1]; cattle (fetal calf), 10% fetal calf serum in phosphate buffer, 9 h, pH 7.3, read-out: % residual peptide ± SD) of 95 ± 6%, a remaining at 10 h, 10 μmol/L ([1]; cattle (fetal calf), 10% fetal calf serum in phosphate buffer, 10 h, pH 7.3, read-out: % residual peptide ± SD) of 94 ± 10% and a remaining at 11 h, 10 μmol/L ([1]; cattle (fetal calf), 10% fetal calf serum in phosphate buffer, 11 h, pH 7.3, read-out: % residual peptide ± SD) of 94 ± 8%. The remaining at 12 h, 10 μmol/L ([1]; cattle (fetal calf), 10% fetal calf serum in phosphate buffer, 12 h, pH 7.3, read-out: % residual peptide ± SD) was 93 ± 4%, the remaining at 24 h, 10 μmol/L ([1]; cattle (fetal calf), 10% fetal calf serum in phosphate buffer, 24 h, pH 7.3, read-out: % residual peptide ± SD) was 93 ± 6% and the remaining at 72 h, 10 μmol/L ([1]; cattle (fetal calf), 10% fetal calf serum in phosphate buffer, 72 h, pH 7.3, read-out: % residual peptide ± SD) was 92 ± 7%. It also gave a remaining at 120 h, 10 μmol/L ([1]; cattle (fetal calf), 10% fetal calf serum in phosphate buffer, 120 h, pH 7.3, read-out: % residual peptide ± SD) of 91 ± 5% and a remaining at 168 h, 10 μmol/L ([1]; cattle (fetal calf), 10% fetal calf serum in phosphate buffer, 168 h, pH 7.3, read-out: % residual peptide ± SD) of 92 ± 8%.

L-methionine sulfone gave an IC50 [2] of 4620 ± 1400 nM.

L-cysteine showed an IC50 [2] of 2030 ± 200 nM.

For D-serine, the IC50 [2] was 2430 ± 3000 nM.
